Laboratory results reported in patent publication US20100150938A1, “METHODS AND COMPOSITIONS FOR REDUCING INFLAMMATION AND TREATING INFLAMMATORY DISORDERS” (UNIVERSITY OF MASSACHUSETTS, priority 2008, published 2010).
Entries after “also recorded” stand apart in the source; their conditions may differ.

Key:
caspase-1 [1] = assay: Caspase-1 activation in microglia (FLICA, confocal microscopy, flow cytometry); assay type: cell-based, mouse; conditions: immortalized microglia, Aβ 10 μM, revAβ 10 μM, ATP 1 mM, 4 h
Procedure: (§1) For assessment of microglia-induced neurotoxicity, CAD mouse neuronal cells^47 were seeded on poly-L-lysine coated glass cover slips and grown in F12/DMEM supplemented with ciprofloxacin (Cellgro, Manassas, Va.) and 10% fetal calf serum (Hyclone, Logan, Utah) for 24 h. Differentiation was induced by withdrawal of serum for 48 h Immortalized microglia from wildtype or caspase-1^−/− mice were added in serum free medium to obtain mixed neuronal/microglial cultures and immediately stimulated. 72 h after stimulation with Aβ or media, cells were fixed, stained for the neuron-specific marker TuJ-1 and microglial marker CD11b, and imaged by confocal microscopy (Leica SP2 AOBS). Caspase-1 activity in microglial cells was assessed using the caspase-1 FLICA™ kit (Immunochemistry Technologies, Bloomington, Minn.) according to the manufacturer's instructions.
(§2) For evaluation of lysosomal damage, cells were incubated with LysoTracker green (1:2000) for 30 min and stimulated as described. Lysosomal damage was defined as loss of LysoTracker fluorescence as assessed by flow cytometry. All flow cytometry experiments were performed on an LSRII cytometer (BD Biosciences), data were acquired by DIVA software (BD Biosciences) and analyzed with FlowJo software (Tree Star Inc., Ashland, Oreg.).
IL-1β maturation is controlled by caspase-1 after assembly of the inflammasome, a multi protein complex that activates pro-caspase-1. In order to test whether Aβ activates caspase-1, we measured levels of activated caspase-1 using a fluorescent cell permeable probe (FAM-YVAD-Fmk), which covalently binds only to activated caspase-1 (Fluorescent labeled Inhibitors of Caspases, FLICA)^14. […] Similar results were obtained in primary microglial cultures (FIG. 15c).

CAD mouse neuronal cells = assay: Neurotoxicity assay, CAD mouse neuronal cells with or without microglia; assay type: cell-based
Procedure: as §1

caspase-1 [2] = assay: Caspase-1 cleavage/activation in mouse macrophages (Western blot p10); assay type: cell-based; conditions: LPS-primed wild type bone marrow-derived macrophages, Aβ and reverse Aβ 10 μM
Procedure: Bone marrow derived macrophages were generated as described (Severa, M et al. Journal of Biological Chemistry 281:26188-26195 (2006)). Human PBMCs were isolated by from whole blood of healthy volunteers by density gradient centrifugation. Lysis of red blood cells was performed using red blood cell lysis buffer (Sigma). Experiments in PBMCs and macrophages were carried out at a cell density of 2×10^6 cells/ml. All primary cells and cell lines except THP-1 cells were cultured in DMEM supplemented with L-glutamine, ciprofloxacin (Cellgro, Manassas, Va.) and 10% fetal calf serum (Hyclone, Logan, Utah). THP-1 cells were cultured in RPMI supplemented with 10% fetal calf serum (Hyclone), L-glutamine, sodium pyruvate (Cellgro), and ciprofloxacin. One day prior to stimulation, THP-1 cells were differentiated using 0.5 μM PMA for three hours, washed three times and plated for stimulation. All experiments that were performed for Western blot analysis were carried out in serum free DMEM medium. ATP stimulations were carried out at 5 mM one hour prior to harvesting supernatants.
Cell culture supernatants were precipitated by adding an equal volume of methanol and 0.25 volumes of chloroform, vortexed and centrifuged at 20.000×g for 10 min. The upper phase was discarded and 500 μl of methanol was added to the interphase. This mixture was centrifuged at 20.000×g for 10 min and the protein pellet dried at 55° C., resuspended in Laemmli buffer and boiled at 99° C. for 5 min. Samples were separated by SDS-PAGE (15%) and transferred onto nitrocellulose membranes. As indicated, blots were incubated with rabbit polyclonal antibody to anti murine caspase-1 p10 (sc-514, Santa Cruz Biotechnology, Santa Cruz, Calif.), rabbit polyclonal anti human caspase-1 p10 (sc-515, Santa Cruz Biotechnology), rabbit polyclonal anti human cleaved IL-1β (Asp116) (Cell Signaling, Boston, Mass.) or rabbit polyclonal anti murine cathepsin B (R&D Systems, Minneapolis, Minn.).
Cell culture supernatants were precipitated by adding an equal volume of methanol and 0.25 volumes of chloroform, vortexed and centrifuged at 20,000×g for 10 min. The upper phase was discarded and 500 μl of methanol was added to the interphase. This mixture was centrifuged at 20,000×g for 10 min and the protein pellet dried at 55° C., resuspended in Laemmli buffer and boiled at 99° C. for 5 min Samples were separated by SDS-PAGE (15%) and transferred onto nitrocellulose membranes. Blots were incubated with rabbit polyclonal antibody to anti murine caspase-1 p10 (sc-514, Santa Cruz Biotechnology, Santa Cruz, Calif.).

lysosomes of microglia = assay: Lysosomal swelling and damage in microglia after Aβ phagocytosis (LAMP-1, cathepsin B, LysoTracker); assay type: cell-based, mouse
Procedure: Neuronal, microglial, mixed neuronal/microglial and primary mixed glial cultures were fixed with 4% paraformaldehyde for 30 min and incubations with respective primary and secondary antibodies were performed for 2 h at room temperature in PBS containing 1% bovine serum albumin, 5% fetal calf serum and 0.05% saponin Cell nuclei were stained with Hoechst 33258 (1:1000).
as §2

mice = assay: Stereotaxic brain microinjection, microglial recruitment (F4/80); assay type: in vivo, mouse; conditions: wild type mice, 1 μl of 1 mg/ml into striatum, 48 h
Procedure: Injections were performed as described^27. Briefly, six week old mice (n=4 in each group) were anesthetized with ketamine (100 mg/kg i.p.; Webster) and xylazine (10 mg/kg i.p.; Webster), placed on a homoeothermic heating blanket (Harvard Apparatus) and immobilized in a stereotaxic frame (Stoelting). A linear skin incision was made under sterile conditions, and a small hole was created in the skull using a dental drill 1 mm anterior and 2 mm lateral to bregma over both hemispheres. 1 μl Aβ in sterile pyrogen-free saline (1 mg/ml) was inoculated on the left side, and the same amount of revAβ was inoculated on the right side, using separate Hamilton syringes. Mice were allowed to fully recover on a heating blanket. After 48 hours, the mice were anesthetized with ketamine/xylazine and transcardially perfused with 4% paraformaldehyde in PBS. Brains were removed, placed in 4% PFA overnight at 4° C., and then transferred to PBS and stored at 4° C. until sectioning. Coronal 60 μm sections were taken using a vibratome (Leica). […] To quantify the number of microglia recruited to sites of microinjection, serial sections from each site of injection were visualized by fluorescence microscopy (Nikon Eclipse E400) and digitally photographed. […] Fluorescence intensity of microglia immunoreactive for F4/80 at each injection site was quantified using ImageJ (NIH).

## Aβ 1-42 peptide
caspase-1 [1]
  caspase-1 positive microglial cells after stimulation: robust increase
CAD mouse neuronal cells; mixed neuronal/microglial cultures with wild type microglia, Aβ 10 μM, 72 h
  neuronal cell death: widespread neuronal cell death
CAD mouse neuronal cells; neuronal mono-culture
  effects on neuronal cells: only minimal morphological and quantitative effects
caspase-1 [2]
  caspase-1 cleavage (p10) induced by the stimulus: induced caspase-1 cleavage (p10)
Lysosomes of microglia; microglia, 4 h after Aβ stimulation
  cells with enlarged lysosomes not staining for cathepsin B: 15-20%
Lysosomes of microglia; microglia, Aβ-FITC
  diameter of Aβ-containing lysosomes, largest observed: up to 11 μm
  diameter of Aβ-containing lysosomes, mean: 4.1±0.4 μm
Lysosomes of microglia; microglia, of all cells
  cells with extensive enlargement and swelling of Aβ-containing lysosomes: ~15%
Lysosomes of microglia; wild type microglia, Aβ 1, 3 and 10 μM, flow cytometry
  cells negative for LysoTracker fluorescence: increased dose-dependently; also recorded: induced loss of LysoTracker Green fluorescence
mice
  microglia around the injection site (F4/80): strong recruitment and chemotaxis of microglia
